The results in this text go back to patent US10221165B2, “Flavone based EGFR inhibitors and process for preparation thereof” (Council of Scientific and Industrial Research, priority 2015, dated 2019).

What is called logP is a log measure of how a compound divides between an organic and an aqueous phase. A high value points to a more lipophilic compound. The term viability denotes the share of living cells, or the viability signal relative to a control. A higher viability goes with less harm to the cells. Broadly, the melting point is the temperature, or range, at which the solid turns liquid.

The nature of one data set: Log P (Table 4). Type of data set: physicochemical. As to conditions: method not stated.
Data set [1] relates to U87MG Cell line (glioblastoma cell line). The data set is described as follows: Cell proliferation assay (MTT), in-vitro anticancer activity against U87MG cell line. The settings on record: Homo sapiens, U-87 MG, 72 h. The class given is cell-based. The protocol:
(§1) Each cell line was plated in 96-well microtiter plates (10,000 cells per well), and serial dilutions of indicated compounds were added. At the end of the incubation period (72 h at 37° C.), cell viability was determined by a tetrazolium dye, MTT (3-(4,5-dimethylthiazol-2-yl)-2,5-diphenyl tetrazolium bromide) (Promega, USA). The formazan crystals were dissolved in DMSO, and the absorbance at 600 nm was recorded using an ELISA plate reader. IC50 values were calculated using nonlinear regression and defined as the concentration needed for a 50% reduction in absorbance of treated versus untreated control cells.
In-Vitro Anticancer Activity Against U87MG Cell Line (Glioblastoma Cell Line)

Data set [2] deals with A549 Cell line (Lung Cancer Cell line). Description: Cell proliferation assay (MTT), in-vitro anticancer activity against A549 cell line. The class given is cell-based. As to conditions: Homo sapiens, 72 h; for viability at 0.01 µM: A549, 0.01 μM; for viability at 0.1 µM: A549, 0.1 μM; for viability at 2.5 µM: A549, 2.5 μM; for viability at 5 µM: A549, 5 μM; for viability at 10 µM: A549, 10 μM. As for the experimental part:
as §1
In-Vitro Anticancer Activity Against A549 Cell Line (Lung Cancer Cell Line) (Adenocarcinomic Human Alveolar Basal Epithelial Cells)

For the compound `COc1ccc2oc(-c3sc(Nc4ccc(C)cc4)nc3N)cc(=O)c2c1` [Compound S1-M10, 2-(2-(p-tolylamino)-4-aminothiazol-5-yl)-6-methoxy-4H-chromen-4-one], the melting point was 280 to 282 °C. This compound registered a lipophilicity (logP) in “Log P (Table 4)” of 3.99. Further, in data set [1], the viability at 0.01 µM was 87.9%, the viability at 0.1 µM was 78%, the viability at 2.5 µM came to 69.4% and the viability at 5 µM was determined as 59.4%. In data set [1], this compound gave a viability at 10 µM of 50.4%. In data set [2], this compound registered a viability at 0.01 µM of 96.9%, a viability at 0.1 µM of 93%, a viability at 2.5 µM of 86.4% and a viability at 5 µM of 76.4%. Also, the viability at 10 µM in data set [2] came out at 66.4%.

`COc1ccc2oc(-c3sc(Nc4ccccc4C)nc3N)cc(=O)c2c1` [Compound S1-M11, 2-(2-(o-tolylamino)-4-aminothiazol-5-yl)-6-methoxy-4H-chromen-4-one] gave a melting point of 288 to 290 °C. In the data set “Log P (Table 4)”, this compound displayed a logP of 2.11. In data set [1], this compound gave a viability at 0.01 µM of 83.8%, a viability at 0.1 µM of 75.7%, a viability at 2.5 µM of 67.2% and a viability at 5 µM of 58.8%. This compound displayed a viability at 10 µM in data set [1] of 49.8%. In data set [2], this compound came in with a viability at 0.01 µM of 99.8%, a viability at 0.1 µM of 93.7%, a viability at 2.5 µM of 84.8% and a viability at 5 µM of 72.8%. The compound also yielded a viability at 10 µM in data set [2] of 62.8%.

The compound `COc1ccc2oc(-c3sc(Nc4c(C)cccc4C)nc3N)cc(=O)c2c1` [Compound S1-M12, 2-(2-(2,6-dimethylphenylamino)-4-aminothiazol-5-yl)-6-methoxy-4H-chromen-4-one] showed a melting point of 228 to 230 °C. The same compound returned a logP in the data set “Log P (Table 4)” of 2.7. For the same compound, in data set [1], the viability at 0.01 µM was 85.1%, the viability at 0.1 µM turned out to be 73.4%, the viability at 2.5 µM was determined as 65.9% and the viability at 5 µM is 56.9%. Besides, in data set [1], the viability at 10 µM was found to be 45.8%. In data set [2], this compound came in with a viability at 0.01 µM of 92.1%, a viability at 0.1 µM of 95.4%, a viability at 2.5 µM of 86.9% and a viability at 5 µM of 78.9%. For the same compound, the viability at 10 µM in data set [2] was determined as 66.9%.

Regarding `COc1ccc2oc(-c3sc(Nc4c(Cl)cccc4Cl)nc3N)cc(=O)c2c1` [Compound S1-M13, 2-(2-(2,6-dichlorophenylamino)-4-aminothiazol-5-yl)-6-methoxy-4H-chromen-4-one], the melting point lay within 260 to 262 °C. In the data set “Log P (Table 4)”, this compound returned a logP of 2.18. Further, in data set [1], the viability at 0.01 µM amounted to 90.4%, the viability at 0.1 µM turned out to be 81.9%, the viability at 2.5 µM was 72.4% and the viability at 5 µM was determined as 64.6%. For the same compound, the viability at 10 µM in data set [1] came to 55.9%. In data set [2], this compound displayed a viability at 0.01 µM of 95.4%, a viability at 0.1 µM of 90.9%, a viability at 2.5 µM of 82.6% and a viability at 5 µM of 72.6%. For the same compound, in data set [2], the viability at 10 µM turned out to be 62.6%.

On to `COc1ccc(Nc2nc(N)c(-c3cc(=O)c4ccc(OC)cc4o3)s2)cc1` [Compound S1-M14, 2-(2-(4-methoxyphenylamino)-4-aminothiazol-5-yl)-7-methoxy-4H-chromen-4-one], for which the melting point is 220 to 222 °C. In “Log P (Table 4)”, this compound had a logP of 2.6. Also, in data set [1], the viability at 0.01 µM amounted to 91%, the viability at 0.1 µM worked out at 80.1%, the viability at 2.5 µM was 70.6% and the viability at 5 µM is 61.3%. Besides, in data set [1], the viability at 10 µM turned out to be 51.1%. In data set [2], the viability at 0.01 µM worked out at 98%, the viability at 0.1 µM worked out at 89.1%, the viability at 2.5 µM was 81.1% and the viability at 5 µM is 71.1%. Moreover, the viability at 10 µM in data set [2] came out at 63.1%.

For the compound `COc1ccc2c(=O)cc(-c3sc(Nc4ccccc4OC)nc3N)oc2c1` [Compound S1-M15, 2-(2-(2-methoxyphenylamino)-4-aminothiazol-5-yl)-7-methoxy-4H-chromen-4-one], the melting point fell in the range of 210 to 212 °C. The same compound registered a logP in the data set “Log P (Table 4)” of 2.5. Further, in data set [1], the viability at 0.01 µM worked out at 89.1%, the viability at 0.1 µM worked out at 77.9%, the viability at 2.5 µM was found to be 68.7% and the viability at 5 µM is 60.7%. In addition, the viability at 10 µM in data set [1] amounted to 50.3%. In data set [2], the viability at 0.01 µM was 96.1%, the viability at 0.1 µM was 92.7%, the viability at 2.5 µM was determined as 85.3% and the viability at 5 µM stood at 75.3%. Also, the viability at 10 µM in data set [2] was 68.3%.
